Test results published in publication PMC3853718 (Journal of Translational Medicine, 2013).

Experiments:
nude mice = details: once-daily administration for 7 days in nude mice; cited from earlier work
patients = details: higher doses (up to 57 mg/m^2), once-every-21-days dosing schedule; cited from earlier work
clinical = details: human, plasma
[1] = system: Rb protein phosphorylation; test: Immunohistochemistry for phospho-Rb in skin biopsies; type: in vivo, human
Method: . The phosphorylation status of the Rb protein in the proliferative layer of skin and in the proliferating cells at the base of hair follicles was determined by IHC utilizing a rabbit anti-phospho-Rb antibody diluted to 0.83 μg/mL or 0.67 μg/mL. Immunohistochemistry staining was scored 0 (no staining relative to background), 1+ (weak staining), 2+ (moderate staining), or 3+ (strong staining); H-score was calculated as a measure of overall immunoreactivity in a given sample, using the following formula: H-score = (% of cells with 3+) × 3 + (% of cells with 2+) × 2 + (% of cells with 1+) × 1. Subjects were to be categorized as responders if no degree of staining was detected with the anti-phospho-Rb antibody.

**Q.** Which results are given for CCc1cnn2c(NCc3ccc[n+]([O-])c3)cc(N3CCCC[C@H]3CCO)nc12 [dinaciclib]?
**A.** maximum tolerated dose, defined as the dose associated with 20% weight loss (nude mice): 60 mg/kg; DLT (patients): Neutropenia; AUC(0-inf) (clinical; intravenous, 0.33 mg/m2): 0.043 µg·h/mL; AUC(0-t) (clinical; intravenous, 0.33 mg/m2): 0.0428 µg·h/mL; Cmax (clinical; intravenous, 0.33 mg/m2): 0.0111 µg/mL; Tmax (clinical; intravenous, 0.33 mg/m2): 1 h; AUC(0-inf) (clinical; intravenous, 0.66 mg/m2): 0.0276 µg·h/mL; AUC(0-t) (clinical; intravenous, 0.66 mg/m2): 0.0284 µg·h/mL; Cmax (clinical; intravenous, 0.66 mg/m2): 0.0132 µg/mL; Tmax (clinical; intravenous, 0.66 mg/m2): 1 h; half-life (clinical; intravenous, 0.66 mg/m2): 1.67 h; AUC(0-inf) (clinical; intravenous, 1.32 mg/m2): 0.134 µg·h/mL; AUC(0-t) (clinical; intravenous, 1.32 mg/m2): 0.134 µg·h/mL; Cmax (clinical; intravenous, 1.32 mg/m2): 0.0695 µg/mL; Tmax (clinical; intravenous, 1.32 mg/m2): 1 h; half-life (clinical; intravenous, 1.32 mg/m2): 3.38 h; AUC(0-inf) (clinical; intravenous, 1.85 mg/m2): 0.216 µg·h/mL; AUC(0-t) (clinical; intravenous, 1.85 mg/m2): 0.216 µg·h/mL; Cmax (clinical; intravenous, 1.85 mg/m2): 0.108 µg/mL; Tmax (clinical; intravenous, 1.85 mg/m2): 2 h; half-life (clinical; intravenous, 1.85 mg/m2): 2.66 h; Cmax (clinical; intravenous, 2.59 mg/m2): 0.104 µg/mL; Tmax (clinical; intravenous, 2.59 mg/m2): 1 h; half-life (clinical; intravenous, 2.59 mg/m2): 3.6 h; AUC(0-inf) (clinical; intravenous, 3.63 mg/m2): 0.431 µg·h/mL; AUC(0-t) (clinical; intravenous, 3.63 mg/m2): 0.405 µg·h/mL; Cmax (clinical; intravenous, 3.63 mg/m2): 0.163 µg/mL; Tmax (clinical; intravenous, 3.63 mg/m2): 1 h; half-life (clinical; intravenous, 3.63 mg/m2): 3.59 h; AUC(0-inf) (clinical; intravenous, 5.08 mg/m2): 0.327 µg·h/mL; AUC(0-t) (clinical; intravenous, 5.08 mg/m2): 0.327 µg·h/mL; Cmax (clinical; intravenous, 5.08 mg/m2): 0.173 µg/mL; Tmax (clinical; intravenous, 5.08 mg/m2): 2 h; half-life (clinical; intravenous, 5.08 mg/m2): 3.19 h; AUC(0-inf) (clinical; intravenous, 7.11 mg/m2): 0.543 µg·h/mL; AUC(0-t) (clinical; intravenous, 7.11 mg/m2): 0.542 µg·h/mL; Cmax (clinical; intravenous, 7.11 mg/m2): 0.25 µg/mL; Tmax (clinical; intravenous, 7.11 mg/m2): 2 h; half-life (clinical; intravenous, 7.11 mg/m2): 3.04 h; AUC(0-inf) (clinical; intravenous, 10 mg/m2): 0.687 µg·h/mL; AUC(0-t) (clinical; intravenous, 10 mg/m2): 0.694 µg·h/mL; Cmax (clinical; intravenous, 10 mg/m2): 0.319 µg/mL; Tmax (clinical; intravenous, 10 mg/m2): 2 h; half-life (clinical; intravenous, 10 mg/m2): 3.02 h; AUC(0-inf) (clinical; intravenous, 12 mg/m2): 1.15 µg·h/mL; AUC(0-t) (clinical; intravenous, 12 mg/m2): 1.15 µg·h/mL; Cmax (clinical; intravenous, 12 mg/m2): 0.525 µg/mL; Tmax (clinical; intravenous, 12 mg/m2): 2 h; half-life (clinical; intravenous, 12 mg/m2): 3.28 h; AUC(0-inf) (clinical; intravenous, 14 mg/m2): 2.02 µg·h/mL; AUC(0-t) (clinical; intravenous, 14 mg/m2): 2.02 µg·h/mL; Cmax (clinical; intravenous, 14 mg/m2): 0.821 µg/mL; Tmax (clinical; intravenous, 14 mg/m2): 1 h; half-life (clinical; intravenous, 14 mg/m2): 3.09 h; half-life (clinical; iv): 1.5 to 3.6 h; mean phospho-Rb H score following treatment ([1]; RP2D 12 mg/m^2, 11 subjects, skin biopsy 4 hours after treatment, before treatment 18.55): 17.64; response based on phospho-Rb staining ([1]; responder = complete loss of phospho-Rb staining): no subjects were deemed to have achieved a response
